Patent US20210330611A1, “THERAPY FOR NEUROLOGICAL DISEASES/DISORDERS” (priority 2020, published 2021)
Structures can show the parent of a compound that is named as a salt. Where two headings read alike, the source gives them in different places.

How the values were obtained:
[1] = test system: fibrin-induced microglia activation; assay: Image-based assay of fibrin-induced microglia activation (HTS and dose response); type: cell-based, rat; conditions: for inhibition at 10 µM: Rattus norvegicus, Microglia, read-out: Fibrin % inhibition
[2] = test system: LPS-induced microglia activation; assay: Image-based assay of LPS-induced microglia activation (HTS and dose response); type: cell-based, rat
[3] = test system: fibrin- and LPS-induced microglia activation; assay: cells; type: cell-based, rat
primary rat microglia [4] = test system: primary rat microglia;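 on Fibrin % cell toxicity: share of dead cells sized under 150 µm2 at 10 µM in fibrin-stimulated microglia HTS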
primary rat microglia [5] = test system: primary rat microglia; remark: listed apart in the source;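 on Fibrin % cell toxicity: share of dead cells sized under 150 µm2 at 10 µM in fibrin-stimulated microglia HTS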
[6] = primary microglia HTS, fibrin stimulation, increased cell size (>800 μm^2) as marker of activation
[7] = Rattus norvegicus, Microglia, 48 h, primary microglia HTS, LPS stimulation; increased cell size (>800 μm^2) as marker of activation; read-out: LPS % inhibition
[8] = quadrant by fibrin and LPS inhibition in HTS of 1907 compounds
[9] = Rattus norvegicus, Microglia, 48 h, read-out: LPS % inhibition
[10] = primary microglia HTS, fibrin stimulation, compounds at 10 μM
[11] = Rattus norvegicus, Microglia, primary microglia HTS, LPS stimulation, compounds at 10 μM; read-out: LPS % inhibition
[12] = classification by fibrin and LPS inhibition, HTS at 10 μM
[13] = primary microglia HTS, 10 μM, fibrin-stimulated, cell size >800 μm^2 as marker of activation
[14] = Rattus norvegicus, Microglia, primary microglia HTS, 10 μM, LPS-stimulated, cell size >800 μm^2 as marker of activation; read-out: LPS % inhibition
[15] = HTS of 1907 compounds, quadrant by fibrin and LPS inhibition
[16] = Rattus norvegicus, Microglia, read-out: LPS % inhibition

Compound: CC(C)NCC(O)c1cc(O)cc(O)c1 (stereo not shown) [Orciprenaline]
- inhibition at 10 µM [1, 6]: 15%
- inhibition at 10 µM [2, 7]: 25%
- Quadrant (FIG. 5b) [3, 8]: Q4
- Fibrin % cell toxicity (primary rat microglia [4]; rat): 0%
- LPS % cell toxicity (primary rat microglia [5]; rat): 0%

Compound: O=C1NS(=O)(=O)c2ccccc21 [Saccharin]
- inhibition at 10 µM [1]: -8%
- inhibition at 10 µM [2, 9]: 11%
- Quadrant (FIG. 5b) [3]: Q4
- Fibrin % cell toxicity (primary rat microglia [4]; rat): 0%
- LPS % cell toxicity (primary rat microglia [5]; rat): 0%

Compound: Sc1ncnc2nc[nH]c12 [Mercaptopurine]
- inhibition at 10 µM [1, 6]: 2%
- inhibition at 10 µM [2, 7]: 9%
- Quadrant (FIG. 5b) [3, 8]: Q4
- Fibrin % cell toxicity (primary rat microglia [4]; rat): 0%
- LPS % cell toxicity (primary rat microglia [5]; rat): 0%

Compound: Nc1ccc(S(=O)(=O)c2ccc(N)cc2)cc1 [Dapsone]
- inhibition at 10 µM [1, 10]: -23%
- inhibition at 10 µM [2, 11]: 11%
- Quadrant (FIG. 5b) [3, 12]: Q4
- Fibrin % cell toxicity (primary rat microglia [4]; rat): 1%
- LPS % cell toxicity (primary rat microglia [5]; rat): 0%

Compound: CC[C@@H](c1cccc(O)c1)[C@@H](C)CN(C)C [Tapentadol Hydrochloride]
- inhibition at 10 µM [1, 13]: -12%
- inhibition at 10 µM [2, 14]: 12%
- Quadrant (FIG. 5b) [3, 15]: Q4
- Fibrin % cell toxicity (primary rat microglia [4]; rat): 1%
- LPS % cell toxicity (primary rat microglia [5]; rat): 0%

Compound: CN1CCN(C2=Nc3cc(Cl)ccc3Nc3ccccc32)CC1 [Clozapine]
- inhibition at 10 µM [1]: 3%
- inhibition at 10 µM [2, 16]: 9%
- Quadrant (FIG. 5b) [3]: Q4
- Fibrin % cell toxicity (primary rat microglia [4]; rat): 0%
- LPS % cell toxicity (primary rat microglia [5]; rat): 0%

Compound: N[C@@H]1C[C@H]1c1ccccc1 (racemic) [Tranylcypromine]
- Fibrin % inhibition ([1]; 10 µM): 5%
- LPS % inhibition ([2]; 10 µM): −5%
- Quadrant (FIG. 5b) [3]: Q4
- Fibrin % cell toxicity (primary rat microglia [4]): 1%
- LPS % cell toxicity (primary rat microglia [5]): 0%

Compound: CCCN(CCC)S(=O)(=O)c1ccc(C(=O)O)cc1 [Probenecid]
- inhibition at 10 µM ([1]; primary microglia HTS, fibrin stimulation, cell size >800 μm2 as marker of activation): 14%
- inhibition at 10 µM ([2]; Rattus norvegicus, Microglia, 48 h; read-out: LPS % inhibition): 13%
- Quadrant (FIG. 5b) ([3]; classification by fibrin and LPS inhibition in HTS): Q4
- Fibrin % cell toxicity (primary rat microglia [4]; rat): 1%
- LPS % cell toxicity (primary rat microglia [5]; rat): 0%

Compound: Prednisolone sodium phosphate [reference compound]
- Fibrin % inhibition [1]: 108%
- IC50 ([1]; read-out: Fibrin IC50): 0.1 µM
- IC50 ([1]; read-out: Fibrin IC50 (uM) (Suppl. Table 7)): 0.1 µM
- LPS % inhibition [2]: 96%
- IC50 ([2]; read-out: LPS IC50): 4 µM
- IC50 ([2]; read-out: LPS IC50 (uM) (Suppl. Table 7)): 4 µM
- Cherry-picked Hit (Suppl. Table 7) [3]: HIT (key: HIT: Hits were defined as molecules that exhibited greater than 50% inhibition of either fibrin or LPS activation)
- Hit [3]: HIT (key: HIT: Hits were defined as molecules that exhibited greater than 50% inhibition of either fibrin or LPS activation)
- Quadrant (FIG. 5b) [3]: Q2
- Fibrin % cell toxicity (primary rat microglia [4]): 3%
- IC50 (primary rat microglia [4]): > 20 µM
- IC50 (primary rat microglia [5]): > 20 µM
- LPS % cell toxicity (primary rat microglia [5]): 3%

Compound: CC[C@@H](CO)NC(=O)[C@@H]1C=C2c3cccc4[nH]cc(c34)C[C@H]2N(C)C1 [Methylergometrine]
- inhibition at 10 µM [1, 6]: -43%
- inhibition at 10 µM [2, 7]: 7%
- Quadrant (FIG. 5b) [3, 8]: Q4
- Fibrin % cell toxicity (primary rat microglia [4]; rat): 0%
- LPS % cell toxicity (primary rat microglia [5]; rat): 0%

Compound: CN(C)C(=S)SSC(=S)N(C)C [Thiram]
- inhibition at 10 µM [1, 10]: 109%
- inhibition at 10 µM [2, 11]: 126%
- Quadrant (FIG. 5b) ([3]; quadrant by fibrin and LPS inhibition, HTS at 10 μM): Q2
- Fibrin % cell toxicity (primary rat microglia [4]; rat): 91%
- LPS % cell toxicity (primary rat microglia [5]; rat): 64%

Compound: Clc1cccc(Cl)c1N=C1NCCN1 [Clonidine]
- inhibition at 10 µM [1]: -22%
- inhibition at 10 µM [2, 16]: 14%
- Quadrant (FIG. 5b) [3]: Q4
- Fibrin % cell toxicity (primary rat microglia [4]; rat): 1%
- LPS % cell toxicity (primary rat microglia [5]; rat): 0%

Compound: N[C@@H](Cc1ccc(O)cc1)C(=O)O [Tyrosine]
- inhibition at 10 µM [1, 13]: -7%
- inhibition at 10 µM [2, 14]: 21%
- Quadrant (FIG. 5b) [3, 15]: Q4
- Fibrin % cell toxicity (primary rat microglia [4]; rat): 1%
- LPS % cell toxicity (primary rat microglia [5]; rat): 1%

Compound: Oc1ccc(O)cc1 [Hydroquinone]
- inhibition at 10 µM [1]: 14%
- inhibition at 10 µM [2, 9]: 12%
- Quadrant (FIG. 5b) [3]: Q4
- Fibrin % cell toxicity (primary rat microglia [4]; rat): 1%
- LPS % cell toxicity (primary rat microglia [5]; rat): 0%

Compound: CCOC(=O)[C@H](CCc1ccccc1)N[C@@H](C)C(=O)N1CCC[C@H]1C(=O)O [Enalapril]
- inhibition at 10 µM [1, 10]: 24%
- inhibition at 10 µM [2, 11]: 6%
- Quadrant (FIG. 5b) [3, 12]: Q4
- Fibrin % cell toxicity (primary rat microglia [4]; rat): 1%
- LPS % cell toxicity (primary rat microglia [5]; rat): 1%

Compound: Brc1c(NC2=NCCN2)ccc2nccnc12 [Brimonidine]
- inhibition at 10 µM [1]: -36%
- inhibition at 10 µM [2, 16]: -9%
- Quadrant (FIG. 5b) [3]: Q4
- Fibrin % cell toxicity (primary rat microglia [4]; rat): 1%
- LPS % cell toxicity (primary rat microglia [5]; rat): 0%
